Measurements from patent EP4737445A1, “NOVEL SATURATED HETEROCYCLE-SUBSTITUTED HETEROARYL-CARBONOHYDRAZONOYL DICYANIDE COMPOUND AND USE THEREOF” (Korea Institute of Science and Technology, priority 2023, dated 2025).

What was measured:
tau [1] = target: T1, tau (Homo sapiens, UniProt P10636, P618L); experiment: Tau-BiFC fluorescence imaging of brain tissue (tau oligomer/aggregate formation); type: in vivo; conditions: TauP301L-BiFC mice; oral 10 mg/kg, 19 weeks; vehicle = 100%
T1 construct: BiFC fluorescent-protein fragments (two complementary halves); from tissue; host or cells: brain of TauP301L-BiFC transgenic mice
T1 sequence (P10636 1-441 isoform P10636-8 P301L): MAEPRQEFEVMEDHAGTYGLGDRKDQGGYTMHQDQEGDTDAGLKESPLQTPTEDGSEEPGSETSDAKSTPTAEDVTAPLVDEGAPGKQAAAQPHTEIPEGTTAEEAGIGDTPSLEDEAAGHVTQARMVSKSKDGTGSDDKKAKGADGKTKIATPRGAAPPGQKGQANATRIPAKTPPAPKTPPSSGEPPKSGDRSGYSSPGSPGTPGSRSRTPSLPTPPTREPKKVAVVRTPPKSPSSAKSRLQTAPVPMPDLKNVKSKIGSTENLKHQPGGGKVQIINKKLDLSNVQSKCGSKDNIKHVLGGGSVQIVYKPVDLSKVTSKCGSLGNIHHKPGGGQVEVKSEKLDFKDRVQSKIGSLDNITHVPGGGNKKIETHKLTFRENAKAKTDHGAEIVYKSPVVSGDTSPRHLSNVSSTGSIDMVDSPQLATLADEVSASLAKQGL
Protocol: After oral administration of Compounds 6, 16, and 20 and completion of behavioral experiments, 13.2-month-old TauP301L-BiFC mice were sacrificed to proceed with brain tissue extraction and [2] brain lysate separation and purification. • [1] First, brain tissue extraction, BiFC fluorescence imaging of brain tissue, and tau phosphorylation antibody immunofluorescence were performed through the following process. TauP301L-BiFC mice were perfused with 0.9% saline and fixed with PBS (pH 7.4) solution containing 4% paraformaldehyde. The brain was extracted and fixed in PBS containing 4% paraformaldehyde at 4°C for 48 to 72 hours. For cryoprotection, the brain was transferred to PBS containing 30% sucrose solution and stored at 4°C until it sank. For frozen sectioning, the brain was immersed in O.C.T (Tissue-TEK) and frozen, and then continuously cut using a brain tissue sectioner. Tissue sections with a thickness of 30 µm were stored in PBS containing 0.05% sodium azide at 4°C.
Brain tissue sections (n=10 per group) were placed on slides, stained with Sudan Black B solution (70% ethanol containing 0.05% Sudan Black B) for 10 minutes to reduce autofluorescence, washed 3 times with PBS containing 0.1% Triton X-100, and then washed with distilled water. For nuclear staining, brain tissue sections were stained with Hoechst (0.5 µg/mL) for 30 minutes. BiFC fluorescence (λex=460-490 nm and λem=500-550 nm) images were acquired using Axio Scan.Z1 (ZEISS). For quantitative analysis, the average BiFC-fluorescence intensity was measured in the somatosensory cortex (layer V) and hippocampus CA1, and the habenular region was used as a control region to reduce background fluorescence differences between brain samples. ImageJ software (NIH) was used to mark regions of interest and calculate fluorescence intensity values, and the data were expressed as the average fluorescence intensity and standard deviation of brain tissue images from 10 mice per group.
As a result of Tau-BiFC fluorescence imaging of four regions of total brain tissue (hippocampus (CA1), somatosensory cortex, cerebellum, brainstem), the degree of Tau-BiFC fluorescence appearing as tau aggregation early oligomer formation and aggregate formation was as follows: • (1) Hippocampus (CA1), vehicle = 100%, #20= 79%, p<0.05, #6= 80%, p<0.05, #16= 72%, p<0.001. • (2) Sensory cortex (SCTX), vehicle = 100%, #20= 72%, p<0.05, #6= 73%, p<0.05, #16= 66%, p<0.01. • (3) Cerebellum (CB), vehicle = 100%, #20= 64%, p<0.05, #6= 68%, ns, #16= 76%, n.s. • (4) Brain stem, vehicle = 100%, #20= 60%, p<0.05, #6= 62%, p<0.05, #16= 60%, p<0.05.

tau [2] = target: T1, tau; experiment: Total tau immunoblot of RIPA-insoluble brain lysates; type: in vivo; conditions: TauP301L-BiFC mice, compared to vehicle, numbers not readable (formula image)
Protocol: [2] To verify the tau pathology inhibitory efficacy of the drug confirmed through brain tissue imaging via brain lysate immunoblot, brain lysates were separated and purified, and immunoblot using tau antibody was performed in soluble and insoluble fractions. The brain was weighed, and RIPA lysis buffer containing the corresponding dose of protease and phosphatase inhibitors was added to the brain tissue. The tissue was then disrupted using a homogenizer and incubated at 4°C for 2 hours, and then centrifuged at 13,200 rpm at 4°C for 20 minutes. After centrifugation, the supernatant was collected as a RIPA-soluble fraction and stored at -80°C. To prepare the RIPA-insoluble fraction, the remaining pellet was washed once with RIPA lysis buffer containing 1 M sucrose, and then 2% SDS solution (1 mL per 1 g of tissue) was added and incubated at room temperature for 1 hour. Thereafter, the mixture was centrifuged at 13,200 rpm for 1 minute at room temperature, and the supernatant was collected as a RIPA-insoluble fraction and stored at -80°C.
For tau immunoblot analysis, 20 µg of brain tissue RIPA-soluble sample was separated on a 10% SDS-PAGE gel and transferred to a PVDF membrane, and RIPA-insoluble samples were diluted 10-fold in 2% SDS solution and 20 µL of each sample was loaded on an SDS-PAGE gel. The total tau and phosphorylated tau levels were detected by Tau5, which is an anti-tau antibody, and pS199 and pS396, which are anti-phosphorylated tau antibodies. ImageJ software (NIH) was used to quantify band intensity.
The results of total tau immunoblot using RIPA-insoluble brain lysates were as follows: [formula]

Row | Compound | Tau-BiFC fluorescence, Brain stem (tau [1]) [%] | Tau-BiFC fluorescence, Cerebellum (CB) (tau [1]) [%] | Tau-BiFC fluorescence, Hippocampus (CA1) (tau [1]) [%] | Tau-BiFC fluorescence, Sensory cortex (SCTX) (tau [1]) [%] | total tau immunoblot, insoluble tau aggregate formation (tau [2])
1 | Cn1c(N2CCOCC2)nc2cc(NN=C(C#N)C#N)ccc21 [Compound 6, (1-methyl-2-morpholino-1H-benzo[d]imidazol-5-yl)carbonohydrazonoyl dicyanide] | 62 | 68 | 80 | 73 | inhibition of insoluble tau aggregate formation
2 | CC1COCCN1c1nc2ccc(NN=C(C#N)C#N)cc2o1 (stereo not drawn) [Compound 16, (2-(3-methylmorpholino)benzo[d]oxazol-6-yl)carbonohydrazonoyl dicyanide] | 60 | 76 | 72 | 66 | inhibition of insoluble tau aggregate formation
3 | N#CC(C#N)=NNc1ccc2nc(N3C4CCC3COC4)oc2c1 [Compound 20, (2-(3-oxa-8-azabicyclo[3.2.1]octan-8-yl)benzo[d]oxazol-6-yl)carbonohydrazonoyl dicyanide] | 60 | 64 | 79 | 72 | inhibition of insoluble tau aggregate formation
